Test results published in patent US20220169643A1, “ESTROGEN RECEPTOR DEGRADING PROTACS” (AstraZeneca AB, priority 2019, published 2022).

target: T1, Estrogen Receptor Alpha Ligand binding domain (ER alpha-LBD (GST)) (Homo sapiens, UniProt P03372); assay: ERα Binding Assay (LanthaScreen TR-FRET competition); conditions: competitive displacement of Fluormone ES2 tracer from recombinant human ER alpha-LBD (residues 307-554), 4 hours at room temperature
T1 construct: made in house
T1 sequence (P03372 307-554): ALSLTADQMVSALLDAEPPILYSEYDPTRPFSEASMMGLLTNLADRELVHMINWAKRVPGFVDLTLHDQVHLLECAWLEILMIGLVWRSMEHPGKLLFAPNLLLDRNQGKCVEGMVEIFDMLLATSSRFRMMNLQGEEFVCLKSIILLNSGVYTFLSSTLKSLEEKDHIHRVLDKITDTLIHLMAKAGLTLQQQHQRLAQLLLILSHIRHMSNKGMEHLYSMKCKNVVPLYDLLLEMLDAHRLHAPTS
Experimental: The ability of compounds to bind to isolated Estrogen Receptor Alpha Ligand binding domain (ER alpha-LBD (GST)) was assessed in competition assays using a LanthaScreen™ Time-Resolved Fluorescence Resonance Energy Transfer (TR-FRET) detection end-point. For the LanthaScreen TR-FRET endpoint, a suitable fluorophore (Fluormone ES2, ThermoFisher, Product code P2645) and recombinant human Estrogen Receptor alpha ligand binding domain, residues 307-554 (expressed and purified in-house) were used to measure compound binding. The assay principle is that ER alpha-LBD (GST) is added to a fluorescent ligand to form a receptor/fluorophore complex. A terbium-labelled anti-GST antibody (Product code PV3551) is used to indirectly label the receptor by binding to its GST tag, and competitive binding is detected by a test compound's ability to displace the fluorescent ligand, resulting in a loss of TR-FRET signal between the Th-anti-GST antibody and the tracer. The assay was performed as follows with all reagent additions carried out using the Beckman Coulter BioRAPTR FRD microfluidic workstation: • 1. Acoustic dispense 120 nL of the test compound into a black low volume 384 well assay plates. • 2. Prepare 1×ER alpha-LBD/Tb-anti-GST Ab in ES2 screening buffer and incubate for 15 minutes. • 3. Dispense 6 μL of the 1×[…]/Th-anti-GST Ab reagent into each well of the assay plate followed by 6 μL of Fluorophore reagent into each well of the assay plate • 4. Cover the assay plate to protect the reagents from light and evaporation, and incubate at room temperature for 4 hours. • 5. Excite at 337 nm and measure the fluorescent emission signal of each well at 490 nm and 520 nm using the BMG PheraSTAR.
Compounds were dosed directly from a compound source microplate containing serially diluted compound (4 wells containing 10 mM, […] and 10 nM final compound respectively) to an assay microplate using the Labcyte Echo 550. The Echo 550 is a liquid handler that uses acoustic technology to perform direct microplate-to-microplate transfers of DMSO compound solutions and the system can be programmed to transfer multiple small nL volumes of compound from the different source plate wells to give the desired serial dilution of compound in the assay which is then back-filled to normalise the DMSO concentration across the dilution range.
In total 120 nL of compound plus DMSO were added to each well and compounds were tested in a 12-point concentration response format over a final compound concentration range of 10, 2.917, 1.042, 0.2083, 0.1, 0.0292, 0.0104, 0.002083, 0.001, 0.0002917, 0.0001042, and 0.00001 μM respectively. TR-FRET dose response data obtained with each compound was exported into a suitable software package (such as Origin or Genedata) to perform curve fitting analysis. Competitive ER alpha binding was expressed as an IC50 value. This was determined by calculation of the concentration of compound that was required to give a 50% reduction in tracer compound binding to ER alpha-LBD.

Point of comparison: COc1cc(N2CCN(CCC3CCN(c4ncc([C@@H]5c6[nH]c7ccccc7c6C[C@@H](C)N5CC(C)(C)F)cn4)CC3)CC2)cc2c1C(=O)N(C1CCC(=O)NC1=O)C2 (stereo partly drawn) [Example 12, 3-(5-{4-[2-(1-{5-[(1R,3R)-2-(2-fluoro-2-methylpropyl)-3-methyl-2,3,4,9-tetrahydro-1H-beta-carbolin-1-yl]pyrimidin-2-yl}piperidin-4-yl)ethyl]piperazin-1-yl}-7-methoxy-1-oxo-1,3-dihydro-2H-isoindol-2-yl)piperidine-2,6-dione], IC50 1.5 nM. Against it:
- C[C@@H]1Cc2c([nH]c3ccccc23)[C@@H](c2cnc(N3CCC4(CCN(CCN5CCN(c6ccc7c(c6)CN(C6CCC(=O)NC6=O)C7=O)CC5=O)CC4)CC3)nc2)N1CC(C)(C)F (stereo partly drawn) [Example 26, 3-(5-{4-[2-(9-{5-[(1R,3R)-2-(2-fluoro-2-methylpropyl)-3-methyl-2,3,4,9-tetrahydro-1H-beta-carbolin-1-yl]pyrimidin-2-yl}-3,9-diazaspiro[5.5]undecan-3-yl)ethyl]-3-oxopiperazin-1-yl}-1-oxo-1,3-dihydro-2H-isoindol-2-yl)piperidine-2,6-dione] — 12-fold higher, 18 nM
- C[C@@H]1Cc2c([nH]c3ccccc23)[C@@H](c2cnc(N3CCC(OCCN4CCN(c5ccc6c(c5)CN(C5CCC(=O)NC5=O)C6=O)CC4)CC3)nc2)N1CC(C)(C)F (stereo partly drawn) [Example 4, 3-[5-[4-[2-[[1-[5-[(1R,3R)-2-(2-Fluoro-2-methyl-propyl)-3-methyl-1,3,4,9-tetrahydropyrido[3,4-b]indol-1-yl]pyrimidin-2-yl]-4-piperidyl]oxy]ethyl]piperazin-1-yl]-1-oxo-isoindolin-2-yl]piperidine-2,6-dione] — within 1.5-fold, 2.1 nM
- C[C@@H]1Cc2c([nH]c3ccccc23)[C@@H](c2cnc(N3CCC(CN(C)C4CN(CC5CCN(c6ccc7c(c6)CN(C6CCC(=O)NC6=O)C7=O)CC5)C4)CC3)nc2)N1CC(C)(C)F (stereo partly drawn) [Example 16, 3-(5-{4-[(3-{[(1-{5-[(1R,3R)-2-(2-fluoro-2-methylpropyl)-3-methyl-2,3,4,9-tetrahydro-1H-beta-carbolin-1-yl]pyrimidin-2-yl}piperidin-4-yl)methyl](methyl)amino}azetidin-1-yl)methyl]piperidin-1-yl}-1-oxo-1,3-dihydro-2H-isoindol-2-yl)piperidine-2,6-dione] — 2-fold higher, 3 nM
- C[C@@H]1Cc2c([nH]c3ccccc23)[C@@H](c2cnc(OC3CCC4(CC3)CCN(CC3CCN(c5ccc6c(c5)CN(C5CCC(=O)NC5=O)C6=O)CC3)CC4)nc2)N1CC(C)(C)F (stereo partly drawn) [Example 41, 3-[5-(4-{[9-({5-[(1R,3R)-2-(2-fluoro-2-methylpropyl)-3-methyl-2,3,4,9-tetrahydro-1H-beta-carbolin-1-yl]pyrimidin-2-yl}oxy)-3-azaspiro[5.5]undecan-3-yl]methyl}piperidin-1-yl)-1-oxo-1,3-dihydro-2H-isoindol-2-yl]piperidine-2,6-dione] — within 1.5-fold, 2.2 nM
- C[C@@H]1Cc2c([nH]c3ccccc23)[C@@H](c2cnc(N3CCC4(CCN(CCC5CCN(c6ccc7c(c6)CN(C6CCC(=O)NC6=O)C7=O)CC5)CCO4)CC3)nc2)N1CC(C)(C)F (stereo partly drawn) [Example 17, 3-(5-{4-[2-(3-{5-[(1R,3R)-2-(2-fluoro-2-methylpropyl)-3-methyl-2,3,4,9-tetrahydro-1H-beta-carbolin-1-yl]pyrimidin-2-yl}-7-oxa-3,10-diazaspiro[5.6]dodecan-10-yl)ethyl]piperidin-1-yl}-1-oxo-1,3-dihydro-2H-isoindol-2-yl)piperidine-2,6-dione] — 9.2-fold higher, 13.8 nM
- C[C@@H]1Cc2c([nH]c3ccccc23)[C@@H](c2cnc(N3CCC(CCN4CCN(c5ccc6c(c5)CN(C5CCC(=O)NC5=O)C6=O)CC4)CC3)nc2)N1CC(C)(C)F (stereo partly drawn) [Example 2, 3-[5-[4-[2-[1-[5-[(1R,3R)-2-(2-Fluoro-2-methyl-propyl)-3-methyl-1,3,4,9-tetrahydropyrido[3,4-b]indol-1-yl]pyrimidin-2-yl]-4-piperidyl]ethyl]piperazin-1-yl]-1-oxo-isoindolin-2-yl]piperidine-2,6-dione] — 2.2-fold higher, 3.3 nM
- C[C@@H]1Cc2c([nH]c3ccccc23)[C@@H](c2ccc(N3CCC(CN4CCC5(CC4)CCN(c4ccc6c(c4)CN(C4CCC(=O)NC4=O)C6=O)CC5)CC3)cn2)N1CC(C)(C)F (stereo partly drawn) [Example 21, 3-(5-{9-[(1-{6-[(1S,3R)-2-(2-fluoro-2-methylpropyl)-3-methyl-2,3,4,9-tetrahydro-1H-beta-carbolin-1-yl]pyridin-3-yl}piperidin-4-yl)methyl]-3,9-diazaspiro[5.5]undecan-3-yl}-1-oxo-1,3-dihydro-2H-isoindol-2-yl)piperidine-2,6-dione] — 5.1-fold higher, 7.6 nM
- COc1cc(N2CCN(CC3CCN(c4ncc([C@@H]5c6[nH]c7ccccc7c6C[C@@H](C)N5CC(C)(C)F)cn4)CC3)CC2)cc2c1C(=O)N(C1CCC(=O)NC1=O)C2 (stereo partly drawn) [Example 39, 3-(5-{4-[(1-{5-[(1R,3R)-2-(2-fluoro-2-methylpropyl)-3-methyl-2,3,4,9-tetrahydro-1H-beta-carbolin-1-yl]pyrimidin-2-yl}piperidin-4-yl)methyl]piperazin-1-yl}-7-methoxy-1-oxo-1,3-dihydro-2H-isoindol-2-yl)piperidine-2,6-dione] — 2.1-fold higher, 3.2 nM
- C[C@@H]1Cc2c([nH]c3ccccc23)[C@@H](c2cnc(N3CCC(CCN4CCC5(CC4)CCN(c4ccc6c(c4)CN(C4CCC(=O)NC4=O)C6=O)CC5)CC3)nc2)N1CC(C)(C)F (stereo partly drawn) [Example 11, 3-(5-{9-[2-(1-{5-[(1R,3R)-2-(2-fluoro-2-methylpropyl)-3-methyl-2,3,4,9-tetrahydro-1H-beta-carbolin-1-yl]pyrimidin-2-yl}piperidin-4-yl)ethyl]-3,9-diazaspiro[5.5]undecan-3-yl}-1-oxo-1,3-dihydro-2H-isoindol-2-yl)piperidine-2,6-dione] — within 1.5-fold, 1.2 nM
- C[C@@H]1Cc2c([nH]c3ccccc23)[C@@H](c2cnc(N3CCC4(CCN(CC5CCN(c6ccc7c(c6)CN(C6CCC(=O)NC6=O)C7=O)CC5)CC4)CC3)nc2)N1CC(C)(C)F (stereo partly drawn) [Example 9, 3-(5-{4-[(9-{5-[(1R,3R)-2-(2-fluoro-2-methylpropyl)-3-methyl-2,3,4,9-tetrahydro-1H-beta-carbolin-1-yl]pyrimidin-2-yl}-3,9-diazaspiro[5.5]undecan-3-yl)methyl]piperidin-1-yl}-1-oxo-1,3-dihydro-2H-isoindol-2-yl)piperidine-2,6-dione] — 5.8-fold higher, 8.7 nM
- C[C@@H]1Cc2c([nH]c3ccccc23)[C@@H](c2cnc(N3CCC(CN4CCN(CC5CCN(c6ccc7c(c6)CN(C6CCC(=O)NC6=O)C7=O)CC5)CC4)CC3)nc2)N1CC(C)(C)F (some centres unmarked) [Example 6] — 3.7-fold higher, 5.6 nM
- 3-[5-(9-{2-[(1S,3r)-3-({5-[(1R,3R)-2-(2-fluoro-2-methylpropyl)-3-methyl-2,3,4,9-tetrahydro-1H-beta-carbolin-1-yl]pyrimidin-2-yl}oxy)cyclobutyl]ethyl}-3,9-diazaspiro[5.5]undecan-3-yl)-1-oxo-1,3-dihydro-2H-isoindol-2-yl]piperidine-2,6-dione [Example 23] — 2.9-fold higher, 4.4 nM
- COc1cc(N2CCN(CCCC3CCN(c4ncc([C@@H]5c6[nH]c7ccccc7c6C[C@@H](C)N5CC(C)(C)F)cn4)CC3)CC2)cc2c1C(=O)N(C1CCC(=O)NC1=O)C2 (stereo partly drawn) [Example 13, 3-(5-{4-[3-(1-{5-[(1R,3R)-2-(2-fluoro-2-methylpropyl)-3-methyl-2,3,4,9-tetrahydro-1H-beta-carbolin-1-yl]pyrimidin-2-yl}piperidin-4-yl)propyl]piperazin-1-yl}-7-methoxy-1-oxo-1,3-dihydro-2H-isoindol-2-yl)piperidine-2,6-dione] — 2-fold higher, 3 nM
